Assay in all cases: intrinsic tryptophan fluorescence quenching titration (static quenching; Ka, n = […])
Assay type in all cases: binding
Conditions in all cases: read-out: Ka (M^-1) × 10^4 (converted)

The target in experiment [1] is T1, human holo-transferrin (HTF) (Homo sapiens, UniProt P02787).
T1 construct: gene TF

Experiment [2] concerns the target T1, human holo-transferrin (HTF). The source holds these as a separate data set.
For experiment [3] the target is unchanged. The source holds these as a separate data set.

Like-named read-outs stand apart in the source and are kept apart here.

The record followed here is PMC9609356, “Novel O-Methylglucoside Derivatives of Flavanone in Interaction with Model Membrane and Transferrin” (Membranes, 2022).

T1 sequence (P02787 20-698): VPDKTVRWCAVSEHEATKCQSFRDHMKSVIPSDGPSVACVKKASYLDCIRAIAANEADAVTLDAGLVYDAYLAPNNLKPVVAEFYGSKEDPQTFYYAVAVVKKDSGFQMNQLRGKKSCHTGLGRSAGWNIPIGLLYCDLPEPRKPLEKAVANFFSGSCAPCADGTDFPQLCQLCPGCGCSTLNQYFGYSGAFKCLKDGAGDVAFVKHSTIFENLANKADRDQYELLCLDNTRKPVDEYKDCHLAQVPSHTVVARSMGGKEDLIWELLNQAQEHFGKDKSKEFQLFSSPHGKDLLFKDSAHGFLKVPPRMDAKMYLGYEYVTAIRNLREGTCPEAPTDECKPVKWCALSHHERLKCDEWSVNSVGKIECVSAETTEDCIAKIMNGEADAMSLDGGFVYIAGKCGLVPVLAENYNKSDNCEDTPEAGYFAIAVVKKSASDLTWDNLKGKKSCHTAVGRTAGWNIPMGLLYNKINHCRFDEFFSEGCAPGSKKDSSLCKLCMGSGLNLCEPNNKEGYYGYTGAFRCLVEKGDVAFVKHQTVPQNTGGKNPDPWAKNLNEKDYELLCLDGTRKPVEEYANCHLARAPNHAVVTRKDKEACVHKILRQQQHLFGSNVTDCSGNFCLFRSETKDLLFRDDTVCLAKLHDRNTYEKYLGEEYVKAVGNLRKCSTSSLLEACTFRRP

Consider `CO[C@H]1[C@H](O)[C@@H](O)[C@H](Oc2cc(C3CC(=O)c4cc(C)ccc4O3)ccc2O)O[C@@H]1CO` (stereo partly drawn) [MFA, 4′-hydroxy-6-methylflavanone 3′-O-β-D-(4′’-O-methyl)-glucopyranoside], for which the Kd in experiment [1] is 89.3 µM.
Turning to `CO[C@H]1[C@H](O)[C@@H](O)[C@H](OCc2ccc3c(c2)C(=O)CC(c2ccc(O)cc2)O3)O[C@@H]1CO` (stereo partly drawn) [MFC, 4′-hydroxyflavanone 6-methylene-O-β-D-(4′’-O-methyl)-glucopyranoside], the Kd in experiment [2] is 35.8 µM.
As for `CO[C@H]1[C@H](O)[C@@H](O)[C@H](Oc2cc(C3CC(=O)c4cc(CO)ccc4O3)ccc2O)O[C@@H]1CO` (stereo partly drawn) [MFB, 4′-hydroxy-6-hydroxymethylflavanone 3′-O-β-D-(4′’-O-methyl)-glucopyranoside], in experiment [3], the Kd was 68 µM.
